According to patent US9447015B1, “(S)-2′-vinyl-abscisic acid derivatives” (Valent BioSciences Corporation, priority 2015, dated 2016):
“Also recorded” adds a separate entry of the source.

How the values were obtained:
[1] = system: Arabidopsis thaliana seed germination; experiment: Arabidopsis seed germination assay (promotion of germination in the presence of (S)-ABA); type: in vivo; design: key to Rating: Arabidopsis seed germination promotion activity: −: Seeds germinated at approximately the same time as those treated with 0.3 ppm of (S)-ABA alone (i.e., treatment with the 2′-vinyl-(S)-ABA derivative showed no measurable effect in this assay configuration).; +: Seeds germinated 1 to 4 days earlier than those treated with 0.3 ppm of (S)-ABA alone.; ++: Seeds germinated 5 to 7 days earlier than those treated with 0.3 ppm of (S)-ABA alone.; +++: Seeds germinated 8 to 10 days earlier than those treated with 0.3 ppm of (S)-ABA alone; conditions: for Rating: Arabidopsis seed germination promotion activity: 30 ppm compound in the presence of 0.3 ppm (S)-ABA, scored on day 14; for antagonist nature compared to (S)-ABA: seed germination assay, 30 ppm with 0.3 ppm (S)-ABA
Procedure: To determine whether the (S)-ABA derivatives of the present invention were effective antagonists, germination assays were performed with the model plant Arabidopsis thaliana. If the compounds are found to be antagonists, they may be useful to counter any undesirable side effects of (S)-ABA.
Arabidopsis seed was sterilized by shaking for five minutes in 200 proof ethanol, followed by shaking for five minutes in a 10% bleach solution. The seeds were then washed five times in sterile, distilled, de-ionized water and suspended in 0.1% phytoagar. The tubes containing the seeds were wrapped in aluminum foil and stratified at 4° C. for two days.
All compounds were tested at a concentration of 30 ppm in the presence or absence of 0.3 ppm (S)-ABA, in 24-well plates. For each compound, a 1000 ppm stock solution was prepared in distilled, deionized water containing 5% DMSO. The stock test solution (15 μL) was added to each well, plus or minus 1.5 μL of 100 ppm (S)-ABA in 5% DMSO. Appropriate amounts of distilled, de-ionized water was added to equalize volumes, and 450 μL of ½×Murashige and Skoog media containing 1.2% Bactoagar was then added to each well (final DMSO concentration was 0.5%). When the media solidified, ten to 15 sterile stratified Arabidopsis seeds were distributed into each well using a repeat pipettor. The plates were sealed with surgical tape and placed in a growth chamber running diurnal cycles of 12 hours of light at 24° C. and 12 hours of darkness at 19° C. The plates were scanned on days 3 through 14, and scored on day 14. The (S)-2′-vinyl-substituted ABA derivatives were scored on ability to promote germination in the presence of (S)-ABA. The results are summarized below in “Table 1: Arabidopsis seed germination promotion activity of 2′-vinyl-(S)-ABA derivatives.”

[2] = system: grapevines, Seedless 'Red Flame' (bud break and shoot development); experiment: Field study for breaking grape vine dormancy; type: in vivo; conditions: for Percent of Buds Broken / Shoot Length/Spur (total length of all shoots present on spur): 1% solution applied to dormant grape spurs
Procedure: A small plot field study to test the effect of experimental compounds on release of, or breaking grape vine dormancy was conducted near Thermal, Calif. in January, 2016. The grapevines, Seedless ‘Red Flame’, had been pruned to 2-4 node spurs (shortened canes) prior to treatment. Aqueous treatment solutions were prepared with a test compound, an appropriate buffering agent, and a silicone-based nonionic surfactant at 0.25% (v/v). Each spur was thoroughly wetted with a 1% (w/v) solution, which was applied with a foam brush. Dormancy breaking was assessed periodically by examining bud break (initiation of growth) and subsequent shoot development. […] Both a control treatment (aqueous solution with surfactant) and a positive control treatment (the commercial standard for bud breaking, hydrogen cyanamide) were included in this study for comparison.

CC(=C/C(=O)O)/C=C/[C@@]1(O)C(/C=C/c2ccc(F)c(F)c2)=CC(=O)CC1(C)C [Compound 23]
Rating: Arabidopsis seed germination promotion activity [1]: +++ (Seeds germinated 8 to 10 days earlier than those treated with 0.3 ppm of (S)-ABA alone.)
antagonist nature compared to (S)-ABA [1]: antagonists of (S)-ABA; also recorded: one of the most potent (S)-ABA antagonist
Percent of Buds Broken ([2]; 31 days post-treatment): 16.7%
Percent of Buds Broken ([2]; 48 days post-treatment): 76.7%
Shoot Length/Spur (total length of all shoots present on spur) ([2]; 48 days post-treatment): 22.2 cm
Shoot Length/Spur (total length of all shoots present on spur) ([2]; 48 days post-treatment, listed as compound 23): intermediate between the spurs treated with the control and hydrogen cyanamide
effect on bud break / breaking of woody plant dormancy ([2]; application to dormant grape spurs, 1% solution): significantly increased bud break

CC(=C/C(=O)O)/C=C/[C@@]1(O)C(/C=C/c2cccc(F)c2)=CC(=O)CC1(C)C [Compound 20]
Rating: Arabidopsis seed germination promotion activity [1]: ++ (Seeds germinated 5 to 7 days earlier than those treated with 0.3 ppm of (S)-ABA alone.)

COC(=O)/C=C(C)\C=C\[C@@]1(O)C(/C=C/c2ccc(Cl)cc2Cl)=CC(=O)CC1(C)C [Compound 15]
Rating: Arabidopsis seed germination promotion activity [1]: ++ (Seeds germinated 5 to 7 days earlier than those treated with 0.3 ppm of (S)-ABA alone.)

N#CN [Hydrogen cyanamide, hydrogen cyanamide, reference compound]
Percent of Buds Broken ([2]; 31 days post-treatment): 21.0%
Percent of Buds Broken ([2]; 48 days post-treatment): 58.8%
Shoot Length/Spur (total length of all shoots present on spur) ([2]; 48 days post-treatment): 25.2 cm

CC(=C/C(=O)O)/C=C/[C@@]1(O)C(/C=C/c2ccc(F)cc2)=CC(=O)CC1(C)C [Compound 2]
Rating: Arabidopsis seed germination promotion activity [1]: + (Seeds germinated 1 to 4 days earlier than those treated with 0.3 ppm of (S)-ABA alone.)

COC(=O)/C=C(C)\C=C\[C@@]1(O)C(/C=C/c2ccccc2Cl)=CC(=O)CC1(C)C [Compound 12]
Rating: Arabidopsis seed germination promotion activity [1]: + (Seeds germinated 1 to 4 days earlier than those treated with 0.3 ppm of (S)-ABA alone.)

CC(=C/C(=O)O)/C=C/[C@@]1(O)C(/C=C/c2ccco2)=CC(=O)CC1(C)C [Compound 33]
Rating: Arabidopsis seed germination promotion activity [1]: −

CC(=C/C(=O)O)/C=C/[C@@]1(O)C(/C=C/c2cccc(C(F)(F)F)c2F)=CC(=O)CC1(C)C [Compound 31]
Rating: Arabidopsis seed germination promotion activity [1]: +++ (Seeds germinated 8 to 10 days earlier than those treated with 0.3 ppm of (S)-ABA alone.)
antagonist nature compared to (S)-ABA [1]: antagonists of (S)-ABA
